In one experiment the test system is E. coli IR60 (NDM-1). As to the kind of experiment: Meropenem MIC with and without inhibitor. Type of experiment: cell-based, Escherichia coli. How it is done:
(§1) Further studies were carried out to determine if ML302F/ML302 potentiates β-lactam antibiotic activity in clinically derived strains containing IMP-1, IMP-4, VIM-4 or NDM-1, which are the most commonly observed MBLs in clinical isolates. All strains producing MBLs were confirmed as resistant to meropenem at the Clinical and Laboratory Standards Institute (U.S.A.) defined breakpoint of 8 μg/mL for Enterobacteriace (see Table 2 below). The minimum inhibitory concentration (MIC) of meropenem against wildtype and MBL producing Escherichia coli and Klebsiella pneumoniae strains was determined with and without increasing concentrations of ML302 or ML302F. Clinical and Laboratory Standards Institute. 2012. Methods for dilution antimicrobial susceptibility tests for bacteria that grow aerobically; 9th ed. Approved standard M07-A9. CLSI, Wayne, Pa.; and Clinical and Laboratory Standards Institute. 2012. Performance standards for antimicrobial susceptibility testing; 22nd informational supplement M100-S22. CLSI, Wayne, Pa.

The test system of the next experiment is E. coli MG1655 (IMP-1). Kind of experiment: Meropenem MIC with and without inhibitor. In kind it is cell-based, Escherichia coli. As to conditions: for Meropenem MIC in the presence of inhibitor: E. coli MG1655 (IMP-1). As to the method: as §1
Experiment [1] concerns K. pneumoniae A34 (VIM-4). Kind of experiment: Meropenem MIC with and without inhibitor. In kind it is cell-based, Klebsiella pneumoniae. How it is done: as §1
Experiment [2] relates to K. pneumoniae B19 (IMP-4). As to the kind of experiment: Meropenem MIC with and without inhibitor. Type of experiment: cell-based, Klebsiella pneumoniae. How it is done: as §1
Experiment [3] relates to K. pneumoniae NCTC 5055 (IMP-1). As to the kind of experiment: Meropenem MIC with and without inhibitor. Type of experiment: cell-based, Klebsiella pneumoniae. As to conditions: for Meropenem MIC in the presence of inhibitor: K. pneumoniae NCTC 5055 (IMP-1). How it is done:
as §1

A further experiment concerns the target SPM-1 (Pseudomonas aeruginosa, UniProt Q8G9Q0). As to the kind of experiment: MBL screening assay (IC50), SPM-1. In kind it is biochemical. How it is done: Recombinant forms of NDM-1, NDM-1 M67C, VIM-1, VIM-2, SPM-1, IMP-1 and BcII MBLs were produced in Escherichia coli as described in J. Med. Chem. 56, 6945-6953 (2013) and Makena et al Chem MechCHem 8, 1923-9 (2013). Purified VIM-2 protein was dialysed into fresh crystallization buffer (50 mM HEPES pH 7.5, 150 mM NaCl and […], concentrated to 7.5 mg/mL and used for crystallographic analyses.
Kinetic and inhibition analyses and UV-VIS studies^16 against bacterial MBLs were performed as described by Van Berkel et al in J. Med. Chem. 56, 6945-6953 (2013) and Makena et al Chem MechCHem 8, 1923-9 (2013).
The experiments were performed by using a NovaStar microplate reader (using path length correction) and were performed at r.t. (24-25° C.). All enzymes and substrates were dissolved in the assay buffer: 50 mM HEPES-NaOH buffer (pH 7.2) supplemented with 1 μg/mL BSA (to minimize the denaturation of the enzyme), 1 μM ZnSO4 and 0.01% Triton 100. Screening was carried out against a panel of MBLs including NDM-1, VIM-1, VIM-2, SPM-1 (Sao Paulo MBL-1) and IMP-1 and the non-clinically relevant model MBL Bacillus cereus (BcII).
The kinetic values determined were the means from at least three independent measurements. […] The IC50 values were determined from the plot of activity (steady state rate) versus inhibitor concentration using the same software. […]

For another experiment, the target named is PBP6 (dacC) from E. coli (Escherichia coli, UniProt P08506). As to the kind of experiment: Inhibition studies for penicillin binding proteins, PBP6. For Inhibition verdict: key: N.I.—not inhibited. In kind it is biochemical. As to conditions: for Inhibition verdict: 100 μM; for remaining activity at 100 µM: read-out: RA (residual activity). As to the method:
To investigate the selectivity of ML302/ML302F for bacterial MBLs, activity was tested against TEM-1 (a Class A SBL), PBP-5 (penicillin-binding protein 5 or dacA) and PBP-6 (penicillin-binding protein 6, or dacC) from E. coli, hHAT (human histone acetyltransferase) and hHDAC (human histone deacetylase). TEM-1, PBP-5 and -6 and hHAT are known to be inhibited by rhodanines. Selectively against hACE-2 (Angiotensin converting enzyme 2) and hHAGH (Hydroxyacylglutathione hydrolase, human Glyoxylase II) was also tested.
The inhibition analyses were performed using the method previously described for PBP-3 (van Berkel, S. S. et al. Binding of (5 S)-penicilloic acid to penicillin binding protein 3.ACS Chem. Biol. 8, 2112-2116 (2013)). In brief: ML302 and ML302F were initially screened at a single concentration (100 μM) in duplicate. Inhibition of the PBP acylation rate by the chromogenic β-lactam Nitrocefin was determined by pre-incubation of the appropriate amount of enzyme (dacA 2 μM and dacC 6.8 μM, respectively) and inhibitor in the assay buffer (50 mM HEPES-NaOH buffer (pH 7.2) supplemented with 200 mM NaCl and 0.01% Triton 100) for 10 min. at r.t. prior to the initiation of the assay by the addition of nitrocefin (100 μM final concentration). The hydrolysis of Nitrocefin was monitored by following the variation in absorbance at 492 nm using 96 well flat bottom plates (UV-STAR Microplate (655801) or Greiner Bio-One). The experiments were performed using a PHERAstar FS—BMG Labtech microplate reader (using path length correction) at r.t. (24-25° C.). All enzymes and inhibitors were prepared in the assay buffer.

[4] abbreviates: Klebsiella pneumoniae, read-out: Meropenem MIC in the absence of inhibitor.

Molecules are shown by their SMILES.

Experimental findings from US10351525B2, “Beta lactamase inhibitors” (Oxford University Innovation Limited, priority 2014, dated 2019) are described below.

As to `C[C@@H](O)[C@H]1C(=O)N2C(C(=O)O)=C(S[C@@H]3CN[C@H](C(=O)N(C)C)C3)[C@H](C)[C@H]12` [Meropenem, meropenem], the MIC – broadly, the least concentration at which growth counts as inhibited – is 16 µg/mL in the experiment on E. coli IR60 (NDM-1) (Escherichia coli, read-out: Meropenem MIC in the absence of inhibitor); 32 µg/mL in the experiment with E. coli MG1655 (IMP-1) (Escherichia coli, MG1655, read-out: Meropenem MIC in the absence of inhibitor); 128 µg/mL in experiment [1] (setting [4]); 16 µg/mL in experiment [2] (setting [4]); 32 µg/mL in experiment [3] (Klebsiella pneumoniae, NCTC5055, read-out: Meropenem MIC in the absence of inhibitor).

Regarding `CN1CCN(NC(=O)CN2C(=O)C(=Cc3c(Cl)ccc(Cl)c3Cl)SC2=S)CC1` (mixture of isomers) [ML302, N-(4-Methylpiperazin-1-yl)-2-(4-oxo-2-thioxo-5-(2,3,6-trichlorobenzylidene)thiazolidin-3-yl)acetamide], the IC50 (in general, the concentration that inhibits the measured activity by half) at SPM-1 amounted to 1320 ± 620 nM. Besides, the “Meropenem MIC in the presence of inhibitor” value (from here on “Meropenem MIC … of inhibitor”) with E. coli IR60 (NDM-1) (inhibitor 10 mg/L) was 8 µg/mL; in the experiment with E. coli IR60 (NDM-1) (inhibitor 25 mg/L), 8 µg/mL; with E. coli IR60 (NDM-1) (inhibitor 50 mg/L) it was 4 µg/mL; with E. coli IR60 (NDM-1) (inhibitor 100 mg/L), 2 µg/mL; in the experiment on E. coli MG1655 (IMP-1) (inhibitor 10 mg/L) it was 0.5 µg/mL; in the experiment on E. coli MG1655 (IMP-1) (inhibitor 25 mg/L), at most 0.25 µg/mL. Moreover, the “Meropenem MIC … of inhibitor” value in the experiment with E. coli MG1655 (IMP-1) (inhibitor 50 mg/L) was at most 0.25 µg/mL; in the experiment with E. coli MG1655 (IMP-1) (inhibitor 100 mg/L), at most 0.25 µg/mL; in experiment [1] (inhibitor 10 mg/L), 32 µg/mL; in experiment [1] (inhibitor 25 mg/L), 8 µg/mL; in experiment [1] (inhibitor 50 mg/L), 4 µg/mL; in experiment [1] (inhibitor 100 mg/L) it was 4 µg/mL. For the same molecule, the “Meropenem MIC … of inhibitor” value in experiment [2] (inhibitor 10 mg/L) was 0.5 µg/mL; in experiment [2] (inhibitor 25 mg/L), at most 0.25 µg/mL; in experiment [2] (inhibitor 50 mg/L), at most 0.25 µg/mL; in experiment [3] (inhibitor 10 mg/L) it was at most 0.25 µg/mL; in experiment [3] (inhibitor 25 mg/L), at most 0.25 µg/mL; in experiment [3] (inhibitor 50 mg/L), at most 0.25 µg/mL. The Inhibition verdict entry on PBP6 (dacC) from E. coli is “N.I”. Also, the remaining activity at 100 µM on PBP6 (dacC) from E. coli is 97.7 ± 3.8%.

Take `O=C(O)C(S)=Cc1c(Cl)ccc(Cl)c1Cl` (racemic) [ML302F, 2-Mercapto-3-(2,3,6-trichlorophenyl)acrylic acid]: on SPM-1, the IC50 turned out to be 1760 ± 510 nM. Further, the “Meropenem MIC … of inhibitor” value in the experiment with E. coli IR60 (NDM-1) (inhibitor 10 mg/L) was 16 µg/mL; in the experiment with E. coli IR60 (NDM-1) (inhibitor 25 mg/L) it was 16 µg/mL; in the experiment with E. coli IR60 (NDM-1) (inhibitor 50 mg/L), 8 µg/mL; in the experiment with E. coli IR60 (NDM-1) (inhibitor 100 mg/L) it was 8 µg/mL; in the experiment on E. coli MG1655 (IMP-1) (inhibitor 10 mg/L) it was 4 µg/mL; in the experiment on E. coli MG1655 (IMP-1) (inhibitor 25 mg/L) it was 4 µg/mL. Also, the “Meropenem MIC … of inhibitor” value in the experiment on E. coli MG1655 (IMP-1) (inhibitor 50 mg/L) amounted to 2 µg/mL; in the experiment on E. coli MG1655 (IMP-1) (inhibitor 100 mg/L) it was 0.5 µg/mL; in experiment [1] (inhibitor 10 mg/L), 64 µg/mL; in experiment [1] (inhibitor 25 mg/L) it was 32 µg/mL; in experiment [1] (inhibitor 50 mg/L), 32 µg/mL; in experiment [1] (inhibitor 100 mg/L) it was 16 µg/mL. Further, the “Meropenem MIC … of inhibitor” value in experiment [2] (inhibitor 10 mg/L) stood at 2 µg/mL; in experiment [2] (inhibitor 25 mg/L), 1 µg/mL; in experiment [2] (inhibitor 50 mg/L), 0.5 µg/mL; in experiment [3] (inhibitor 10 mg/L) it was 4 µg/mL; in experiment [3] (inhibitor 25 mg/L), 0.5 µg/mL; in experiment [3] (inhibitor 50 mg/L), 0.5 µg/mL. Moreover, the Inhibition verdict entry at PBP6 (dacC) from E. coli was “N.I”. Besides, on PBP6 (dacC) from E. coli, the remaining activity at 100 µM is 114%.
